The values below come from patent US4318898A, “Technetium-99m-labelled (2,4,5-trimethylacetanilido)-iminodiacetate for liver function diagnosis, chloroacetric acid (2,4,5-trimethylanilide), (2,4,5-trimethylacetanilido)-iminodiacetate, and process for their preparation” (Hoechst Aktiengesellschaft, priority 1978, dated 1982).

Data set [1] can be described thus: Distribution of radioactivity in the organs of rats after injection into the thigh vein. The note with it: for radioactivity in intestines / radioactivity in kidneys / radioactivity in liver: rat, 30 μCi, thigh vein. The class given is in vivo, rat. The method, then:
2. 30 μCi each of the labelled diagnostic agent are administered to groups of 12 rats each by injection into the thigh vein. Subsequently, 3 animals each are killed after 5, 10, 20 and 30 minutes, and the distribution of radioactivity in the organs is determined.
After stirring for 5 minutes, the pH is adjusted to 6 by means of hydrochloric acid, the batch is brought to 233 ml, divided into 1 ml portions in beaded rim vials, and frozen with liquid nitrogen. Subsequently, the product is lyophilized, the vials are filled with nitrogen and closed. After a storage time of 60 days, 0.3 mCi to Tc-99m pertechnetate in 10 ml of physiological saline solution is injected into the closed vials. After a reaction time of 20 minutes, 0.5 ml each of the diagnostic agent so obtained is administered intravenously to rats (typical test results are indicated in Table 2).

Data set [2] is described as follows: Gamma-camera observation of activity distribution over time in rabbit after injection into the ear vein. The following applies: for livermax (time of maximal liver activity after the injection) / livermax/2 (half-life of the activity in the liver, outside of the gallbladder): rabbit, 0.5 mCi, ear vein, Tc-99m labelled. Format: in vivo. The method, then:
(1) 0.5 mCi of the labelled diagnostic agent ia administered to a rabbit by injection into the ear vein, and the distribution of the activity is observed during the passage of time by means of a gamma-camera connected with a data processing system. The progress of the activity in defined organs is thus observed. The following parameters are determined:
1. livermax =time of maximal liver activity after the injection
2. livermax/2 =half-life of the activity in the liver (outside of the gallbladder).
1.8 g (2,4,5-trimethylacetanilido)-iminodiacetic acid is dissolved in 20 ml of 0.5 N sodium hydroxide solution and 36 mg of SnCl2.2H2 O (dissolved in 6 ml of 0.1 N hydrochloric acid) are added. The batch is stirred for 5 minutes, the pH is adjusted to 6 by means of hydrochloric acid, the batch is brought to 60 ml and divided into 1 ml portions. 10 mCi of Tc-99m pertechnetate in 4 ml of physiological saline solution are added to such a portion. […] All operations were carried out under a protective N2 gas atmosphere.

The next data set has as its system mice. Description: Toxicity (dosis tolerata maxima, LD50) in mice. The class given is in vivo.
A further data set concerns rats. The data set is described as follows: Toxicity (dosis tolerata maxima, LD50) in rats. Format: in vivo.
The mark [3] stands for this setting: compared to the hitherto known products.

On to “^99m Tc-(2,6-dimethylacetanilido)-iminodiacetate [HIDA]”, for which the radioactivity in intestines is given as 43.2% in data set [1] (5 minutes), 65.9% in data set [1] (10 minutes), 80.8% in data set [1] (20 minutes) and 79.7% in data set [1] (30 minutes). In addition, the radioactivity in kidneys in data set [1] (5 minutes) is reported as 7.4%; in data set [1] (10 minutes), 7.4%; in data set [1] (20 minutes), 5.8%; in data set [1] (30 minutes), 4.9%. For the same compound, the radioactivity in liver in data set [1] (5 minutes) was found to be 21.7%; in data set [1] (10 minutes), 9.6%; in data set [1] (20 minutes), 2.2%; in data set [1] (30 minutes), 1.0%. Further, the “livermax (time of maximal liver activity after the injection)” value in data set [2] was determined as 5.7 min. In data set [2], the “livermax/2 (half-life of the activity in the liver, outside of the gallbladder)” value came out at 8.2 min.
Turning to `Cc1cc(C)c(NC(=O)CN(CC(=O)O)CC(=O)O)c(C)c1` [2,4,6-trimethyl-, (2,4,6-trimethylacetanilido)iminodiacetate], in data set [1] (5 minutes), the radioactivity in intestines is reported as 57.0%, the radioactivity in kidneys stood at 3.6% and the radioactivity in liver is 23.5%. For the same compound, in data set [1] (10 minutes), the radioactivity in intestines is 66.0%, the radioactivity in kidneys is recorded as 3.8% and the radioactivity in liver is 12.1%. In addition, in data set [1] (20 minutes), the radioactivity in intestines worked out at 79.2%, the radioactivity in kidneys came to 3.8% and the radioactivity in liver amounted to 2.9%. Further, in data set [1] (30 minutes), the radioactivity in intestines worked out at 81.0%, the radioactivity in kidneys was 3.3% and the radioactivity in liver is on record as 1.6%. In addition, in data set [2], the “livermax (time of maximal liver activity after the injection)” value stood at 4.2 min and the “livermax/2 (half-life of the activity in the liver, outside of the gallbladder)” value amounted to 10.0 min.
Regarding “^99m Tc-(2,6-diethylacetanilido)-iminodiacetate [EHIDA]”, in data set [1] (5 minutes), the radioactivity in intestines turned out to be 71.2%, the radioactivity in kidneys worked out at 4.3% and the radioactivity in liver turned out to be 6.9%. In addition, in data set [1] (10 minutes), the radioactivity in intestines turned out to be 79.9%, the radioactivity in kidneys stood at 4.2% and the radioactivity in liver is on record as 3.4%. In data set [1] (20 minutes), the radioactivity in intestines is 81.7%, the radioactivity in kidneys worked out at 3.6% and the radioactivity in liver is 1.6%. In data set [1] (30 minutes), the radioactivity in intestines came out at 81.8%, the radioactivity in kidneys is 3.4% and the radioactivity in liver was found to be 1.5%. Further, in data set [2], the “livermax (time of maximal liver activity after the injection)” value is 6.8 min and the “livermax/2 (half-life of the activity in the liver, outside of the gallbladder)” value is 15.7 min.
For the compound `Cc1cc(C)c(NC(=O)CN(CC(=O)O)CC(=O)O)cc1C` [TMIDA, (2,4,5-trimethylacetanilido)-iminodiacetate], the “activity concentration in the kidney” value in data set [1] (setting [3]) is recorded as “decreased activity concentration in the kidney”. Further, in data set [1] (5 minutes), the radioactivity in intestines came to 56.8%, the radioactivity in kidneys amounted to 3.3% and the radioactivity in liver is listed as 19.1%. Further, in data set [1] (10 minutes), the radioactivity in intestines worked out at 68.8%, the radioactivity in kidneys worked out at 3.1% and the radioactivity in liver worked out at 9.6%. In data set [1] (20 minutes), the radioactivity in intestines was 81.1%, the radioactivity in kidneys is 2.5% and the radioactivity in liver amounted to 2.4%. Besides, in data set [1] (30 minutes), the radioactivity in intestines worked out at 82.0%, the radioactivity in kidneys was found to be 2.1% and the radioactivity in liver turned out to be 1.2%. In the data set on mice, the LD50 is listed as 246 mg per kg of test animal and the dosis tolerata maxima is reported as 189 mg/kg of body weight. In the data set with rats, the LD50 is 255 mg per kg of test animal and the dosis tolerata maxima is recorded as 189 mg/kg of body weight. Further, the “passage through the liver” value in data set [2] (setting [3]) is reported as “more rapid passage through the liver”. In addition, in data set [2], the “livermax (time of maximal liver activity after the injection)” value was 2.6 min and the “livermax/2 (half-life of the activity in the liver, outside of the gallbladder)” value stood at 7.7 min.
Turning to `CC(C)c1cccc(C(C)C)c1NC(=O)CN(CC(=O)O)CC(=O)O` [2,6-diisopropyl-, (2,6-diisopropylacetanilido)-iminodiacetate], the radioactivity in intestines worked out at 60.9% in data set [1] (5 minutes), 65.3% in data set [1] (10 minutes), 71.9% in data set [1] (20 minutes) and 72.2% in data set [1] (30 minutes). The radioactivity in kidneys is on record as 4.4% in data set [1] (5 minutes), 4.4% in data set [1] (10 minutes), 4.4% in data set [1] (20 minutes) and 3.8% in data set [1] (30 minutes). For the same compound, the radioactivity in liver in data set [1] (5 minutes) turned out to be 10.0%; in data set [1] (10 minutes), 7.0%; in data set [1] (20 minutes), 4.4%; in data set [1] (30 minutes) it was 4.4%. In addition, in data set [2], the “livermax (time of maximal liver activity after the injection)” value came to 4.6 min. For the same compound, the “livermax/2 (half-life of the activity in the liver, outside of the gallbladder)” value in data set [2] is 15.3 min.
